Test results taken from ChEMBL document CHEMBL5726876, “NHE3-binding compounds and methods for inhibiting phosphate transport” (2019).
Several values for one entry are separate records, joined by “and”; a condition that tells them apart may be missing. Equal entries are not always repeated. Blank lines part the entries; values can stand above or below the compound they belong to.

Key:
[1] = Cell-based activity under Prompt Conditions: Cell-based activity under Prompt Conditions. Rat or human NHE3-mediated Na+-dependent H+ antiport was measured using a modification of the pH sensitive dye method originally reported by Paradiso (PNAS USA. 81:7436-7440, 1984). Opossum kidney (OK) cells were obtained from the ATCC and propagated per their instructions. The rat NHE3 gene (GenBank M85300) or the human NHE3 gene (GenBank NM_004174.1) was introduced into OK cells via electroporation, and cells were seeded into 96 well plates and grown overnight. Medium was aspirated from the wells, cells were washed twice with NaCl-HEPES buffer (100 mM NaCl, 50 mM HEPES, 10 mM glucose, 5 mM KCl, 2 mM CaCl2, 1 mM MgCl2, pH 7.4), then incubated for 30 min at room temperature with NH4Cl-HEPES buffer (20 mM NH4Cl, 80 mM NaCl, 50 mM HEPES, 5 mM KCl, 2 mM CaCl2, 1 mM MgCl2, pH 7.4) containing 5 μM bis(acetoxymethyl) 3,3′-(3′,6′-bis(acetoxymethoxy)-5-((acetoxymethoxy)carbonyl)-3-oxo-3H-spiro[isobenzofuran-1,9′-xanthene]-2′,7′-diyl)dipropanoate (BCECF-AM).Cells were washed twice with Ammonium free, Na+-free HEPES (100 mM choline, 50 mM HEPES, 10 mM glucose, 5 mM KCl, 2 mM CaCl2, 1 mM MgCl2, pH 7.4) and incubated in the same buffer for 10 minutes at room temperature to lower intracellular pH. […] Initial rates were plotted as the average 2 or more replicates, and pIC50 values were estimated using GraphPad Prism.
[2] = Cell-Based Assay of NHE3 Activity under Persistent Conditions: The ability of compounds to inhibit Rat NHE3-mediated Na+-dependent H+ antiport after application and washout was measured using a modification of the pH sensitive dye method described above. Opossum kidney (OK) cells were obtained from the ATCC and propagated per their instructions. The rat NHE3 gene was introduced into OK cells via electroporation, and cells were seeded into 96 well plates and grown overnight. Medium was aspirated from the wells, cells were washed twice with NaCl-HEPES buffer (100 mM NaCl, 50 mM HEPES, 10 mM glucose, 5 mM KCl, 2 mM CaCl2, 1 mM MgCl2, pH 7.4), then overlayed with NaCl-HEPES buffer containing 0-30 μM test compound.After a 60 min incubation, the test drug containing buffer was aspirated from the cells, cells were washed twice with NaCl-HEPES buffer without drug, then incubated for 30 min at room temperature with NH4Cl-HEPES buffer (20 mM NH4Cl, 80 mM NaCl, 50 mM HEPES, 5 mM KCl, 2 mM CaCl2, 1 mM MgCl2, pH 7.4) containing 5 uM BCECF-AM. Cells were washed twice with Ammonium free, Natfree HEPES (100 mM choline, 50 mM HEPES, 10 mM glucose, 5 mM KCl, 2 mM CaCl2, 1 mM MgCl2, pH 7.4) and incubated in the same buffer for 10 minutes at room temperature to lower intracellular pH. […] Initial rates were plotted as the average 2 or more replicates, and pIC50 values w
[3] = Cell-based assay of NaP2b activity: The rate of phosphate (Pi) uptake into cells was measured using a modification of a literature method (see Mohrmann et al. Am. J. Phys. 250(3 pt 1):G323-30, 1986). Briefly, HEK293 cells were transiently transfected with an expression clone encoding either rat or human NaP2b. The next day, transfected cells were treated with a pharmacological agent to minimize endogenous PiT-mediated phosphate transport activity, such that the only remaining sodium-dependent phosphate transport activity is that which was bestowed by introduction of the NaP2b gene. Cells were incubated with radioactive inorganic phosphate in the presence or absence of varying concentrations of test compound. After a short time, cells were washed, harvested, and the amount of hot phosphate taken up in the cells determined by liquid scintillation counting.HEK293 cells were obtained from the American Type Culture collection and propagated per their instructions. Expression clones for rat and human NaP2b (SLC34A2) were obtained from Open Biosystems (Catalog numbers MRN1768-9510282, and MHS1010-99823026, respectively). There are two putative splice variants of human NaP2b, designated as isoform a and isoform b (NCBI Reference Sequences: NP_006415.2 and NP_ 001171470.1, respectively). […] […]

SMILES: CN1Cc2c(Cl)cc(Cl)cc2[C@@H](c2cccc(S(=O)(=O)NCCOCCOCCNC(=O)NCCCCNC(=O)NCCOCCOCCNS(=O)(=O)c3cccc([C@H]4CN(C)Cc5c(Cl)cc(Cl)cc54)c3)c2)C1
IC50 [1]: < 10000 nM and 50.1 nM
IC50 [2]: 2510 nM

SMILES: CN1Cc2c(Cl)cc(Cl)cc2[C@H](c2cccc(S(=O)(=O)NCCOCCOCCN(C)C(=O)CCC(CCC(=O)N(C)CCOCCOCCNS(=O)(=O)c3cccc([C@@H]4CN(C)Cc5c(Cl)cc(Cl)cc54)c3)(CCC(=O)N(C)CCOCCOCCNS(=O)(=O)c3cccc([C@@H]4CN(C)Cc5c(Cl)cc(Cl)cc54)c3)NC(=O)COCC(=O)O)c2)C1
IC50 [1]: 20 nM

SMILES: CN1Cc2c(Cl)cc(Cl)cc2[C@H](c2cccc(S(=O)(=O)NCCOCCOCCNC(=O)CCC(CCC(=O)NCCOCCOCCNS(=O)(=O)c3cccc([C@@H]4CN(C)Cc5c(Cl)cc(Cl)cc54)c3)(CCC(=O)NCCOCCOCCNS(=O)(=O)c3cccc([C@@H]4CN(C)Cc5c(Cl)cc(Cl)cc54)c3)NC(=O)NC(CO)CO)c2)C1
IC50 [1]: 79.4 nM

SMILES: CN(C)[C@H]1Cc2c(Cl)cc(Cl)cc2[C@@H]1Oc1ccc(S(=O)(=O)NCCOCCOCCNC(=O)CCC(C)(CCC(=O)NCCOCCOCCNS(=O)(=O)c2ccc(O[C@H]3c4cc(Cl)cc(Cl)c4C[C@@H]3N(C)C)cc2)NC(=O)CCC(=O)O)cc1
IC50 [1]: 10 nM

SMILES: CN1Cc2c(Cl)cc(Cl)cc2[C@H](c2cccc(S(=O)(=O)NCCOCCOCCNC(=O)Nc3ccc(NC(=O)NCCOCCOCCNS(=O)(=O)c4cccc([C@@H]5CN(C)Cc6c(Cl)cc(Cl)cc65)c4)cc3)c2)C1
IC50 [1]: 2.51 nM

SMILES: CN1Cc2c(Cl)cc(Cl)cc2[C@H](c2cccc(NC(=O)[C@H](O)[C@@H](O)[C@H](O)[C@H](O)CO)c2)C1
IC50 [1]: 25.1 nM

IC50 [3]: < 31600 nM
SMILES: CN1Cc2c(Cl)cc(Cl)cc2[C@H](c2cccc(S(=O)(=O)NCCOCCOCCNC(=O)NCCCCNC(=O)NCCOCCOCCNS(=O)(=O)c3cccc([C@@H]4CN(C)Cc5c(Cl)cc(Cl)cc54)c3)c2)C1 [TENAPANOR]
IC50 [1]: 9.33 nM and 10 nM
IC50 [2]: 3.98 nM
